Results from US11970456B1, “Synthesis of thiosemicarbazide analogue as inhibitor of tyrosinase, skin hyperpigmentation, and fruit and/or vegetable browning” (KING SAUD UNIVERSITY, priority 2023, dated 2024).
Entries after “also recorded” stand apart in the source; their conditions may differ.

Assays:
[1] = tested on: T1, mushroom tyrosinase (EC 1.14.18.1); assay: Tyrosinase inhibition assay and kinetics (o-diphenolase activity, L-DOPA substrate); assay type: biochemical, Agaricus bisporus (mushroom); conditions: for Type of inhibition: Lineweaver-Burk and Dixon plots
T1 construct: 22 U of mushroom tyrosinase (EC 1.14.18.1)
Protocol: The assay mixture contained sodium phosphate buffer (50 mM; pH 6.8), 22 U of mushroom tyrosinase (EC 1.14.18.1; Sigma Chemical Co., St. Louis, USA), L-DOPA substrate (1 mM), and Compound 2 dissolved in DMSO. The final concentration of DMSO in the assay mixture was 0.5%. The o-diphenolase inhibitory activity of Compound 2 was first screened at a final concentration of 30 μM using Ultrospec 2100 pro spectrophotometer (Amersham Biosciences, UK).
The kinetic assays included a range of substrate (0.25-2.0 mM) and Compound 2 concentrations (0.25, 0.5, 1.0, 2.0 μM). The […] was first incubated with the […] for 15 min. at 25° C. followed by addition of substrate. The reaction was continuously monitored in the spectrophotometer and the enzyme velocity was measured from the linear portion of the curve (7). The kinetics data were analyzed by Grafit 7.0.3 software (Erithacus Software Ltd., Staines, UK) utilizing the Lineweaver Burk plot {1/v versus 1/[S]} and the Ki values were calculated using the Dixon plot {1/v versus [I]}.

melting point [°C] | fold more potent than kojic acid (by Ki) ([1]; Ki of kojic acid versus Ki of the compound) [fold] | IC50 ([1]; o-diphenolase activity, L-DOPA substrate, 25° C., pH 6.8, read-out: IC50 (μM ± SEM)) [µM] | Ki ([1]; o-diphenolase activity, L-DOPA substrate, Dixon plot, 25° C., pH 6.8, read-out: Ki (μM ± SEM)) [µM] | SMILES | Type of inhibition [1]
258 to 262 | 52 | 0.228 | 0.0843 | NC(=S)N/N=C/c1ccc2[nH]ncc2c1 [Compound 2, 2-((1H-indazol-5-yl)methylene)hydrazinecarbothioamide] | competitive inhibitor; also recorded: competitive inhibition
 |  |  |  | O=c1cc(CO)occ1O [Kojic acid, kojic acid, reference compound] | Competitive
